For orientation: TD50 means the dose at which the toxic effect under study appears in half of the subjects.

Data on 4 molecules can be found in PubChem BioAssay AID1745844 (Carcinogenic Potency Database (CPDB), 2022).

The test system of the series is rodent lifetime carcinogenesis bioassay, tumor incidence TD50. Kind of series: carcinogenic potency in animals, long-term in vivo studies, CPDB compilation (AID 1745844).
Setting [1] is: mouse, strain B6C3F1, males, by gavage, site: any site (literature study), lesion: several types, types named in the paper, dosed 103 weeks, study length 104 weeks.
The mark [2] stands for this setting: rat, strain Fischer 344, females, by gavage, site: any site (literature study), lesion: several types, types named in the paper, dosed 103 weeks, study length 104 weeks.
Where [3] appears, read: rat, strain Fischer 344, males, by gavage, site: adrenal medulla, lesion: pheochromocytoma + pheochromocytoma, malignant, dosed 103 weeks, study length 104 weeks.
Where [4] appears, read: rat, strain Fischer 344, males, by gavage, site: any site (literature study), lesion: several types, types named in the paper, dosed 103 weeks, study length 104 weeks.
[5] abbreviates: rat, strain Fischer 344, males, by gavage, site: testis, lesion: interstitial-cell tumor, dosed 103 weeks, study length 104 weeks.

Several values for one entry are separate records, joined by “and”; a condition that tells them apart may be missing. Equal entries are not always repeated. Activity calls are given as the source filed them. The rule behind the calls is not given here.

Regarding `Nc1ccc(Cl)cc1N`, the TD50 runs as follows: (mouse, strain B6C3F1, females, in feed, site: any site (literature study), lesion: several types, types named in the paper, dosed 78 weeks, study length 95 weeks) 4090 mg/kg/day; (mouse, strain B6C3F1, females, in feed, site: liver, lesion: hepatocellular adenoma + hepatocellular carcinoma + neoplastic nodule, dosed 78 weeks, study length 95 weeks) 2240 mg/kg/day; (mouse, strain B6C3F1, females, in feed, site: liver, lesion: hepatocellular adenoma + hepatocellular carcinoma, dosed 78 weeks, study length 95 weeks) 2240 mg/kg/day; (mouse, strain B6C3F1, females, in feed, site: liver, lesion: hepatocellular carcinoma, dosed 78 weeks, study length 95 weeks) 5060 mg/kg/day; (mouse, strain B6C3F1, males, in feed, site: any site (literature study), lesion: several types, types named in the paper, dosed 78 weeks, study length 95 weeks) 905 mg/kg/day; (mouse, strain B6C3F1, males, in feed, site: liver, lesion: hepatocellular adenoma + hepatocellular carcinoma + neoplastic nodule, dosed 78 weeks, study length 95 weeks) 957 mg/kg/day. Also, the TD50 is 957 mg/kg/day (mouse, strain B6C3F1, males, in feed, site: liver, lesion: hepatocellular adenoma + hepatocellular carcinoma, dosed 78 weeks, study length 95 weeks); 1370 mg/kg/day (mouse, strain B6C3F1, males, in feed, site: liver, lesion: hepatocellular carcinoma, dosed 78 weeks, study length 95 weeks); 21300 mg/kg/day (mouse, strain B6C3F1, males, in feed, site: lung, lesion: alveolar/bronchiolar adenoma + alveolar/bronchiolar carcinoma, dosed 78 weeks, study length 95 weeks); 351 mg/kg/day (rat, strain Fischer 344, females, in feed, site: any site (literature study), lesion: several types, types named in the paper, dosed 78 weeks, study length 105 weeks); 6500 mg/kg/day (rat, strain Fischer 344, females, in feed, site: liver, lesion: hepatocellular adenoma + hepatocellular carcinoma + neoplastic nodule, dosed 78 weeks, study length 105 weeks); 212 mg/kg/day (rat, strain Fischer 344, females, in feed, site: stomach + urinary bladder, lesion: squamous-cell papilloma + papillomatosis + papillary carcinoma + papilloma, NOS + transitional-cell carcinoma + transitional-cell, dosed 78 weeks, study length 105 weeks). The TD50 is 5270 mg/kg/day (rat, strain Fischer 344, females, in feed, site: stomach, lesion: squamous-cell papilloma, dosed 78 weeks, study length 105 weeks); 2160 mg/kg/day (rat, strain Fischer 344, females, in feed, site: thyroid gland, lesion: follicular-cell adenoma + follicular-cell carcinoma, dosed 78 weeks, study length 105 weeks); 429 mg/kg/day (rat, strain Fischer 344, females, in feed, site: urinary bladder, lesion: papillary carcinoma + transitional-cell carcinoma, dosed 78 weeks, study length 105 weeks); 212 mg/kg/day (rat, strain Fischer 344, females, in feed, site: urinary bladder, lesion: papillomatosis + papillary carcinoma + papilloma, NOS + transitional-cell carcinoma + transitional-cell papilloma, dosed 78 weeks, study length 105 weeks); 362 mg/kg/day (rat, strain Fischer 344, males, in feed, site: any site (literature study), lesion: several types, types named in the paper, dosed 78 weeks, study length 105 weeks); 1240 mg/kg/day (rat, strain Fischer 344, males, in feed, site: liver, lesion: hepatocellular adenoma + hepatocellular carcinoma + neoplastic nodule, dosed 78 weeks, study length 105 weeks). The TD50 was 197 mg/kg/day (rat, strain Fischer 344, males, in feed, site: stomach + urinary bladder, lesion: squamous-cell carcinoma + squamous-cell papilloma + papilloma, NOS + transitional-cell carcinoma + transitional-cell papilloma, dosed 78 weeks, study length 105 weeks); 2500 mg/kg/day (rat, strain Fischer 344, males, in feed, site: stomach, lesion: squamous-cell carcinoma + squamous-cell papilloma, dosed 78 weeks, study length 105 weeks); 3380 mg/kg/day (rat, strain Fischer 344, males, in feed, site: thyroid gland, lesion: follicular-cell adenoma + follicular-cell carcinoma, dosed 78 weeks, study length 105 weeks); 216 mg/kg/day (rat, strain Fischer 344, males, in feed, site: urinary bladder, lesion: papilloma, NOS + transitional-cell carcinoma + transitional-cell papilloma, dosed 78 weeks, study length 105 weeks); 3780 mg/kg/day (rat, strain Fischer 344, males, in feed, site: urinary bladder, lesion: squamous-cell carcinoma, dosed 78 weeks, study length 105 weeks); 363 mg/kg/day (rat, strain Fischer 344, males, in feed, site: urinary bladder, lesion: transitional-cell carcinoma, dosed 78 weeks, study length 105 weeks).
As to `CC(O)c1ccccc1` (centres undefined), the carcinogen call (mouse, strain B6C3F1, females, by gavage, site: any site (literature study), lesion: several types, types named in the paper, dosed 103 weeks, study length 104 weeks) was “negative (inactive)”. Besides, the TD50 reads like this: under setting [1], 2230 mg/kg/day (inactive); under setting [2], 826 mg/kg/day; (rat, strain Fischer 344, females, by gavage, site: liver, lesion: hepatocellular adenoma + hepatocellular carcinoma + neoplastic nodule, dosed 103 weeks, study length 104 weeks) 8630 mg/kg/day; (rat, strain Fischer 344, females, by gavage, site: pancreatic islets, lesion: islet-cell adenoma, dosed 103 weeks, study length 104 weeks) 2300 mg/kg/day (inactive); under setting [3], 135 mg/kg/day; under setting [4], 88.6 mg/kg/day. In addition, the TD50 was 458 mg/kg/day and 944 mg/kg/day (rat, strain Fischer 344, males, by gavage, site: kidney, lesion: tubular-cell adenoma + tubular-cell adenocarcinoma, dosed 103 weeks, study length 104 weeks); 984 mg/kg/day and 564 mg/kg/day (rat, strain Fischer 344, males, by gavage, site: kidney, lesion: tubular-cell adenoma, dosed 103 weeks, study length 104 weeks); 4800 mg/kg/day (rat, strain Fischer 344, males, by gavage, site: liver, lesion: hepatocellular adenoma + hepatocellular carcinoma + neoplastic nodule, dosed 103 weeks, study length 104 weeks); 1050 mg/kg/day (rat, strain Fischer 344, males, by gavage, site: lung, lesion: alveolar/bronchiolar adenoma + alveolar/bronchiolar carcinoma, dosed 103 weeks, study length 104 weeks); 1270 mg/kg/day (rat, strain Fischer 344, males, by gavage, site: preputial gland, lesion: carcinoma, NOS, dosed 103 weeks, study length 104 weeks); 51.5 mg/kg/day under setting [5].
Regarding `S=c1[nH]c2ccccc2s1`, the carcinogen call (mouse, strain B6AKF1, females, oral dosing, site: any site (literature study), lesion: several types, types named in the paper, dosed 76 weeks, study length 76 weeks) is “negative (inactive)”; the carcinogen call (mouse, strain B6AKF1, females, oral dosing, site: liver, lesion: hepatoma, dosed 76 weeks, study length 76 weeks) was “negative (inactive)”; the carcinogen call (mouse, strain B6AKF1, females, oral dosing, site: lung, lesion: adenoma, dosed 76 weeks, study length 76 weeks) was “negative (inactive)”; the carcinogen call (mouse, strain B6AKF1, males, oral dosing, site: liver, lesion: hepatoma, dosed 76 weeks, study length 76 weeks) is “negative (inactive)”; the carcinogen call (mouse, strain B6AKF1, males, oral dosing, site: lung, lesion: adenoma, dosed 76 weeks, study length 76 weeks) was “negative (inactive)”; the carcinogen call (mouse, strain B6C3F1, females, oral dosing, site: liver, lesion: hepatoma, dosed 76 weeks, study length 76 weeks) is “negative (inactive)”. Further, the TD50 (mouse, strain B6AKF1, males, oral dosing, site: any site (literature study), lesion: several types, types named in the paper, dosed 76 weeks, study length 76 weeks) is 105 mg/kg/day (inactive); the TD50 (mouse, strain B6C3F1, females, by gavage, site: liver, lesion: hepatocellular adenoma + hepatocellular carcinoma + neoplastic nodule, dosed 103 weeks, study length 104 weeks) is 2160 mg/kg/day; the TD50 (mouse, strain B6C3F1, females, by gavage, site: liver, lesion: hepatocellular adenoma + hepatocellular carcinoma, dosed 103 weeks, study length 104 weeks) came out at 2160 mg/kg/day; the TD50 (mouse, strain B6C3F1, females, oral dosing, site: any site (literature study), lesion: several types, types named in the paper, dosed 76 weeks, study length 76 weeks) was 283 mg/kg/day (inactive); the TD50 (mouse, strain B6C3F1, females, oral dosing, site: lung, lesion: adenoma, dosed 76 weeks, study length 76 weeks) was 283 mg/kg/day (inactive); the TD50 under setting [1] is 3330 mg/kg/day (inactive). For the same molecule, the TD50 by setting is: (mouse, strain B6C3F1, males, by gavage, site: liver, lesion: hepatocellular adenoma + hepatocellular carcinoma + neoplastic nodule, dosed 103 weeks, study length 104 weeks) 3700 mg/kg/day; (mouse, strain B6C3F1, males, oral dosing, site: any site (literature study), lesion: several types, types named in the paper, dosed 76 weeks, study length 76 weeks) 17 mg/kg/day (inactive); (mouse, strain B6C3F1, males, oral dosing, site: liver, lesion: hepatoma, dosed 76 weeks, study length 76 weeks) 56.2 mg/kg/day (inactive); (mouse, strain B6C3F1, males, oral dosing, site: lung, lesion: adenoma, dosed 76 weeks, study length 76 weeks) 120 mg/kg/day (inactive); (rat, strain Fischer 344, females, by gavage, site: adrenal medulla + pituitary gland, anterior, lesion: pheochromocytoma + adenoma, NOS, dosed 103 weeks, study length 104 weeks) 247 mg/kg/day; (rat, strain Fischer 344, females, by gavage, site: adrenal medulla, lesion: pheochromocytoma, dosed 103 weeks, study length 104 weeks) 805 mg/kg/day. The TD50 is 576 mg/kg/day under setting [2]; 343 mg/kg/day (rat, strain Fischer 344, females, by gavage, site: pituitary gland, anterior, lesion: adenoma, NOS, dosed 103 weeks, study length 104 weeks); 157 mg/kg/day (rat, strain Fischer 344, males, by gavage, site: adrenal medulla + multiple organs + pancreas + preputial gland, lesion: pheochromocytoma + pheochromocytoma, malignant + mononuclear-cell leukemia + acinar-cell adenoma + adenoma, NOS + carcinoma, NOS, dosed 103 weeks, study length 104 weeks); 394 mg/kg/day under setting [3]; 136 mg/kg/day under setting [4]; 3200 mg/kg/day (rat, strain Fischer 344, males, by gavage, site: multiple organs + tunica albuginea, lesion: mesothelioma, malignant + mesothelioma, NOS, dosed 103 weeks, study length 104 weeks). Moreover, the TD50 (rat, strain Fischer 344, males, by gavage, site: multiple organs, lesion: mononuclear-cell leukemia, dosed 103 weeks, study length 104 weeks) is 401 mg/kg/day; the TD50 (rat, strain Fischer 344, males, by gavage, site: pancreas, lesion: acinar-cell adenoma, dosed 103 weeks, study length 104 weeks) is 345 mg/kg/day; the TD50 (rat, strain Fischer 344, males, by gavage, site: pituitary gland, anterior, lesion: adenoma, NOS, dosed 103 weeks, study length 104 weeks) was found to be 333 mg/kg/day; the TD50 (rat, strain Fischer 344, males, by gavage, site: preputial gland, lesion: adenoma, NOS + carcinoma, NOS, dosed 103 weeks, study length 104 weeks) is 1580 mg/kg/day; the TD50 (rat, strain Fischer 344, males, by gavage, site: preputial gland, lesion: adenoma, NOS, dosed 103 weeks, study length 104 weeks) was found to be 1710 mg/kg/day; the TD50 (rat, strain Fischer 344, males, by gavage, site: subcutaneous tissue, lesion: fibroma + neurofibroma, dosed 103 weeks, study length 104 weeks) stood at 1900 mg/kg/day. For the same molecule, the TD50 by setting is: (rat, strain Fischer 344, males, by gavage, site: subcutaneous tissue, lesion: fibroma, dosed 103 weeks, study length 104 weeks) 2200 mg/kg/day; (rat, strain Fischer 344, males, by gavage, site: subcutaneous tissue, lesion: fibrosarcoma + fibroma + neurofibroma + sarcoma, NOS, dosed 103 weeks, study length 104 weeks) 1730 mg/kg/day; under setting [5], 240 mg/kg/day.
For `O=[As](O)(O)O`, the TD50 by setting is: (monkey, strain Cynomolgus [Macaca fascicularis], both sexes, in feed, site: any site (literature study), lesion: benign tumor, dosed 735 weeks, study length 735 weeks) 0.169 mg/kg/day; (monkey, strain Cynomolgus [Macaca fascicularis], both sexes, in feed, site: kidney cortex, lesion: adenoma, dosed 735 weeks, study length 735 weeks) 0.029 mg/kg/day. Also, the carcinogen call is, setting by setting: (rat, strain Osborne-Mendel, both sexes, in feed, site: any site (literature study), lesion: malignant tumor, dosed 104 weeks, study length 104 weeks) “negative (inactive)”; (rat, strain Osborne-Mendel, both sexes, in feed, site: any site (literature study), lesion: several types, types named in the paper, dosed 104 weeks, study length 104 weeks) “negative (inactive)”.
